These are literature values, as cited in PMC10088252.

Read-outs that look alike come from different tables or passages of the source.

Data set [1] relates to MET exon 14-mutated NSCLC. Also on record: method as in PMID 35720834. The settings on record: real-world; cited from earlier work.
Data set [2] concerns MET exon 14-mutated or MET-amplified NSCLC. Set-up: method as in PMID 32877583. Particulars: cited from earlier work.
Data set [3] relates to MET-positive solid tumors. Set-up: method as in PMID 31778267. Particulars: all patients (76); cited from earlier work.
Data set [4] has as its system MET- or ROS1-positive NSCLC. Set-up: method as in PMID 31584608. Particulars: cited from earlier work.
The test system of data set [5] is NSCLC harboring MET exon 14 skipping mutation. Set-up: method as in PMID 34166627. Particulars: cited from earlier work.
Data set [6] has as its system advanced solid tumors with c-MET H-score of ≥ 150. Set-up: method as in PMID 30285518. Particulars: 16 patients with NSCLC; cited from earlier work.
Setting [7] is: of 13 patients with brain metastases at baseline.

On to `CNC(=O)c1ccc(-c2cnc3ncc(Cc4ccc5ncccc5c4)n3n2)cc1F` [capmatinib], for which the ORR in data set [1] was 58%; in data set [2] (MET amplification, gene copy number < 10), 7–12%; in data set [2] (MET amplification, gene copy number ≥ 10, previously treated) it was 29%; in data set [2] (MET amplification, gene copy number ≥ 10, treatment-naïve), 40%; in data set [2] (patients harboring MET exon 14 skipping mutation) it was 41%; in data set [2] (previously treated MET exon 14-mutated NSCLC), 41%. Also, the ORR in data set [2] (treatment-naïve MET exon 14-mutated NSCLC) is on record as 68%. Besides, the “median PFS” value in data set [1] is given as 9.5 months. The TEAE nausea in data set [2] is 45%. Besides, the TEAE peripheral edema in data set [2] was 51%. In addition, in data set [2], the “patients who discontinued treatment due to TRAEs” value was 11%. Also, in data set [2] (setting [7]), the “patients achieving intracranial response” value is “Seven”. The “patients with intracranial CR” value in data set [2] (setting [7]) is “four”. Also, the DCR in data set [3] is listed as 26%.
For the molecule `C[C@@H](Oc1cc(-c2cnn(C3CCNCC3)c2)cnc1N)c1c(Cl)ccc(F)c1Cl` [crizotinib], the ORR in data set [4] (MET copy number ≥ 6) is 16%; in data set [4] (MET mutation) it was 10.7%.
In the case of `C[C@@H](c1ccc2nccn2c1)n1nnc2ncc(-c3cnn(C)c3)nc21` [savolitinib], the DCR in data set [5] (15 MET exon 14-mutated NSCLC patients with brain metastases) is 93.3%. For the same molecule, in data set [5], the “grade ≥ 3 TRAE increased ALT” value was 10%, the “grade ≥ 3 TRAE increased AST” value is given as 13%, the “grade ≥ 3 TRAE peripheral oedema” value was 9% and the “incidence of grade ≥ 3 TRAEs” value is reported as 46%. In addition, in data set [5] (patients harboring MET exon 14 skipping mutation, FAS), the ORR is 42.9%.

B1: telisotuzumab vedotin (conjugate, chains of the INN, looked up)
VH: QVQLVQSGAEVKKPGASVKVSCKASGYIFTAYTMHWVRQAPGQGLEWMGWIKPNNGLANYAQKFQGRVTMTRDTSISTAYMELSRLRSDDTAVYYCARSEITTEFDYWGQGTLVTVSS
VL: DIVMTQSPDSLAVSLGERATINCKSSESVDSYANSFLHWYQQKPGQPPKLLIYRASTRESGVPDRFSGSGSGTDFTLTISSLQAEDVAVYYCQQSKEDPLTFGGGTKVEIK
modifications: vedotin (MMAE) payload
On to B1, for which the DCR in data set [6] is 56%.
